Results on 9 compounds are retold here after publication PMC11123979, “Discovery of Nine Dipeptidyl Peptidase-4 Inhibitors from Coptis chinensis Using Virtual Screening, Bioactivity Evaluation, and Binding Studies” (Molecules, 2024).

Like-named read-outs stand apart in the source and are kept apart here. Where only a bound is given, the exact number is not on record here.

Assay [1] deals with T1, DPP-4 (Homo sapiens, UniProt P27487).
T1 construct: purchased Cayman Chemical Company 700210
Description: DPP-4 inhibition assay (commercial DPP-4 inhibitor screening assay kit, fluorescence). Type of assay: biochemical. To be noted: for IC50: dose-response curves, read-out: IC50 value of the DPP-4 inhibitory activity; for inhibition at 30 µM: read-out: DPP-4 inhibition (primary screening). As for the experimental part: The DPP-4 inhibitory activity of 39 potential compounds obtained via virtual screening was tested using a commercial DPP-4 inhibitor screening assay kit (Item No. 700210, Cayman Chemical Company, Ann Arbor, MI, USA), and the kit’s instructions were followed exactly. The fluorescence intensity was measured at an excitation/emission wavelength of 360/460 nm using an EnVision Multilabel Reader (2104 PerkinElmer, Waltham, MA, USA). The possibility of false positives was eliminated by assessing the autofluorescence of each test compound. […] These compounds were prepared at a concentration of 30 μM in deionized water that contained 0.5% DMSO. […] The half-maximal inhibitory concentration (IC50) was determined using GraphPad Prism 9 software.

Assay [2] deals with T1, DPP-4. Description: SPR-based binding assay (BIAcore T200, DPP-4 immobilized on CM5 chip). To be noted: 'Affinity' module, 1:1, 25 °C, Tris-HCl pH 8.0. How it is done:
The binding affinity between DPP-4 and six alkaloids in Coptis chinensis was evaluated using the BIAcore T200 system (GE Healthcare, Uppsala, Sweden). All SPR-related materials were obtained from GE Healthcare, and DPP-4 (D3446) was purchased from Sigma-Aldrich Chemical Co. (St. Louis, MO, USA). The DPP-4 protein, dissolved in PBS at a concentration of 40 ng/μL, was immobilized onto the surface of a CM5 sensor chip using a standard amine-coupling procedure. The test compounds were prepared at varying concentrations in a solution of Tris-Hcl (pH 8.0) and injected over the surface of the chip at a rate of 30 μL·min^−1 and a temperature of 25 °C. A reference flow cell without the immobilization of DPP-4 served as a control for non-specific binding. […] The chip could be regenerated and reused multiple times after it was treated with glycine–HCl (10 mM; pH 2.0). The test compounds were evaluated using the single-cycle kinetics mode across a two-fold concentration series (1.17–100 µM). The equilibrium constant (KD) was calculated based on the 1:1 reaction ratio between the molecule and protein, using the ‘affinity” module in the Biacore T200 software.
Background: In SPR one partner is held on a chip, and binding of the other changes the refractive index at the surface.

T1 sequence (P27487 whole entry): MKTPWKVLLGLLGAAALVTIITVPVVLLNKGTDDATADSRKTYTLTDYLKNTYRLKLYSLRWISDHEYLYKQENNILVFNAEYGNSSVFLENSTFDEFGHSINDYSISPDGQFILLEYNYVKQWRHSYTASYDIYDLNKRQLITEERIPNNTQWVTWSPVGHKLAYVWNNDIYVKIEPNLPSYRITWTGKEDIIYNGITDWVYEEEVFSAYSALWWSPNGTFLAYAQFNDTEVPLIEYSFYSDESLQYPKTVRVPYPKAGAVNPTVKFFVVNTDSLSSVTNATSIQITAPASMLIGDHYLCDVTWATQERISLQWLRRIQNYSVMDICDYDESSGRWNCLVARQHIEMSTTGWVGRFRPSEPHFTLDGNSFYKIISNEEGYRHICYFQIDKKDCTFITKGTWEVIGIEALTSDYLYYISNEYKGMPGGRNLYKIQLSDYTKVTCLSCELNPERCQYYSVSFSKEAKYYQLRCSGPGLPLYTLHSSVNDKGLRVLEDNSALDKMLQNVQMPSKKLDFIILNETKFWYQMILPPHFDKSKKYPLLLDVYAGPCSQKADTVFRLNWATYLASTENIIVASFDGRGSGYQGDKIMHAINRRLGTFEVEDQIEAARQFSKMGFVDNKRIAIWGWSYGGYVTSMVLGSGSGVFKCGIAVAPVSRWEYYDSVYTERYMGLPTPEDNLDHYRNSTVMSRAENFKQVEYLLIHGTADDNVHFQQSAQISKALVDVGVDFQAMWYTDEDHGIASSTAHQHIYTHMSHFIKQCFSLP

Usually IC50 stands for the concentration at which inhibition is half-maximal. For orientation: inhibition means the relative decrease from the control value, in per cent. What is called Kd is a measure of binding affinity in units of concentration. Consider `COc1ccc2cc3[n+](cc2c1OC)CCc1cc2c(cc1-3)OCO2` [berberine], for which the IC50 in assay [1] turned out to be 53.7 µM. For the same compound, in assay [1] (final concentration of 30 μM), the inhibition at 30 µM is greater than 40%. Also, the Kd in assay [2] turned out to be 30 µM.
Take `COc1ccc2cc3[n+](cc2c1O)CCc1cc2c(cc1-3)OCO2` [berberrubine]: the IC50 in assay [1] stood at 27.4 µM. The inhibition at 30 µM in assay [1] (final concentration of 30 μM) is greater than 40%. In assay [2], this compound returned a Kd of 18.8 µM.
Taken in the same sequence, the figures for `COc1cc2c(cc1O)-c1cc3ccc(OC)c(OC)c3c[n+]1CC2` [columbamine] were 3.44 µM, greater than 40% and 8.11 µM.
In the case of `c1c2c(cc3c1OCO3)-c1cc3ccc4c(c3c[n+]1CC2)OCO4` [coptisine], in assay [1], the IC50 is 8.91 µM. In addition, in assay [1] (final concentration of 30 μM), the inhibition at 30 µM was greater than 40%. In assay [2], this compound had a Kd of 13.8 µM.
Turning to `COc1ccc2cc3[n+](cc2c1OC)CCc1cc(O)c(O)cc1-3` [demethyleneberberine], in assay [1], the IC50 was 3.63 µM. The inhibition at 30 µM in assay [1] (final concentration of 30 μM) was greater than 40%.
Take `COc1cc2c(cc1OC)-c1cc3ccc4c(c3c[n+]1CC2)OCO4` [epiberberine]: the IC50 in assay [1] amounted to 35.6 µM. Further, the inhibition at 30 µM in assay [1] (final concentration of 30 μM) was greater than 40%.
Consider `COc1cc2c(cc1O)CC[n+]1cc3c4c(ccc3cc1-2)OCO4` [groenlandicine], for which, in assay [1], the IC50 stood at 13.4 µM. Further, in assay [1] (final concentration of 30 μM), the inhibition at 30 µM was greater than 40%. In assay [2], the Kd is 15 µM.
In the case of `COc1cc2c(cc1O)CC[n+]1cc3c(OC)c(OC)ccc3cc1-2` [jatrorrhizine], in assay [1], the IC50 came out at 26.9 µM and the inhibition at 30 µM is greater than 40%. Besides, binding in assay [2] was put at a Kd of 12.1 µM.
As for `COc1cc2c(cc1OC)-c1cc3ccc(OC)c(OC)c3c[n+]1CC2` [palmatine], the 50% inhibitory concentration (IC50) in assay [1] turned out to be 49.8 µM. For the same compound, the inhibition at 30 µM in assay [1] (final concentration of 30 μM) is greater than 40%.
